Data published in US7547710B2, “Fused heterocyclic compounds as peptidase inhibitors” (Takeda Pharmaceutical Company Limited, priority 2002, dated 2009).

Tests used:
[1] = target: T1, Caco-2-derived dipeptidyl peptidase IV (Homo sapiens, UniProt P27487); experiment: Determination of Caco-2-derived dipeptidyl peptidase IV inhibitory activity; type: biochemical; conditions: Caco-2 crude enzyme solution, substrate Gly-Pro-p-NA, 37° C., absorbance 405 nm after 0 hr. and 3 hrs.
T1 construct: A dipeptidyl peptidase IV crude enzyme solution was prepared from cultured Caco-2 (ATCC HTB-37) cells; endogenous in cells; host or cells: Caco-2 (ATCC HTB-37); Triton X-100 extract, Sephadex G-200 fractions
T1 sequence (P27487 whole entry): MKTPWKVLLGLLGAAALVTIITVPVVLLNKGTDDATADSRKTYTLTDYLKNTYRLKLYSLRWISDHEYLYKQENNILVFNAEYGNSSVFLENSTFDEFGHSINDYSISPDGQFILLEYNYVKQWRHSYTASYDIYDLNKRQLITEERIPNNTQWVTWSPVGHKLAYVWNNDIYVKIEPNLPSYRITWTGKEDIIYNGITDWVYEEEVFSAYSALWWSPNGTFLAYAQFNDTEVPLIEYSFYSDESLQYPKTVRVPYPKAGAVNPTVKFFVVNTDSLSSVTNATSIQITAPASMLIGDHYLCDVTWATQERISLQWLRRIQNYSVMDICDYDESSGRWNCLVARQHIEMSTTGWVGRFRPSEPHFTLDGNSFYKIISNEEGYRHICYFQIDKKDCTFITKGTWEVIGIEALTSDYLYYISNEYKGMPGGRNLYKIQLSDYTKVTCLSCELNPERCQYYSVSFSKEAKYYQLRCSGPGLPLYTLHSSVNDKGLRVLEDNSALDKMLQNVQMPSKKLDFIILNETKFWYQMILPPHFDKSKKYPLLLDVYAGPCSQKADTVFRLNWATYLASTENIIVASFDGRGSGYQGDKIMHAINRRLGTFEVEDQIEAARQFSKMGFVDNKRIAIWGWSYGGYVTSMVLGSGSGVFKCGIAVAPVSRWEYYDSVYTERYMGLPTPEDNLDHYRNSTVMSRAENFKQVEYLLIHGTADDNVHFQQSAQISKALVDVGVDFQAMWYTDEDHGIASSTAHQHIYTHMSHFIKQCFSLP
Protocol: The enzyme activity of dipeptidyl peptidase IV present in human colonic adenocarcinoma-derived cell line Caco-2 cell membrane has been already reported by Yong S. Chung et al. (Cancer Research, vol. 45, pp. 2976-2982, 1985).
A dipeptidyl peptidase IV crude enzyme solution was prepared from cultured Caco-2 (ATCC HTB-37) cells. The Caco-2 cells were cultured in D-MEM medium (manufactured by Nissui Pharmaceutical Co., Ltd.) containing 10% FBS (fetal bovine serum (manufactured by GIBCO)). […]
An N,N-dimethylformamide solution (5 μl) containing the test compound was added to a mixture of water (25 μl), 1M Tris-hydrochloride buffer (10 μl, pH 7.5) and 1 mM aqueous glycylprolyl-p-nitroanilide (Gly-Pro-p-NA; manufactured by Backem AG) solution (50 μl) to prepare a mixed solution. […] The absorbance after 0 hr. and 3 hrs. was measured using a microplate reader (Multiskan Bichromatic; manufactured by Labsystems) at a wavelength of 405 nm and an increase (ΔODs) was determined. At the same time, an increase (ΔODc) in absorbance of the reaction mixture without the test compound, and an increase (ΔODb) in absorbance of the reaction mixture without the test compound and the enzyme were determined and percent inhibition of dipeptidyl peptidase IV enzyme activity was calculated from the following formula: {1−[(ΔODs−ΔODb)/(ΔODc−ΔODb)]}×100 […]

[2] = target: T2, dipeptidyl peptidase IV in rat plasma (Rattus norvegicus, UniProt P14740); experiment: Determination of dipeptidyl peptidase IV inhibitory activity in rat plasma; type: biochemical; conditions: SD rat plasma, substrate Gly-Pro-p-NA, 30° C., absorbance 405 nm after 0 hr. and 1 hr.
T2 construct: from tissue; host or cells: SD rat blood plasma
T2 sequence (P14740 37-767 limits assumed): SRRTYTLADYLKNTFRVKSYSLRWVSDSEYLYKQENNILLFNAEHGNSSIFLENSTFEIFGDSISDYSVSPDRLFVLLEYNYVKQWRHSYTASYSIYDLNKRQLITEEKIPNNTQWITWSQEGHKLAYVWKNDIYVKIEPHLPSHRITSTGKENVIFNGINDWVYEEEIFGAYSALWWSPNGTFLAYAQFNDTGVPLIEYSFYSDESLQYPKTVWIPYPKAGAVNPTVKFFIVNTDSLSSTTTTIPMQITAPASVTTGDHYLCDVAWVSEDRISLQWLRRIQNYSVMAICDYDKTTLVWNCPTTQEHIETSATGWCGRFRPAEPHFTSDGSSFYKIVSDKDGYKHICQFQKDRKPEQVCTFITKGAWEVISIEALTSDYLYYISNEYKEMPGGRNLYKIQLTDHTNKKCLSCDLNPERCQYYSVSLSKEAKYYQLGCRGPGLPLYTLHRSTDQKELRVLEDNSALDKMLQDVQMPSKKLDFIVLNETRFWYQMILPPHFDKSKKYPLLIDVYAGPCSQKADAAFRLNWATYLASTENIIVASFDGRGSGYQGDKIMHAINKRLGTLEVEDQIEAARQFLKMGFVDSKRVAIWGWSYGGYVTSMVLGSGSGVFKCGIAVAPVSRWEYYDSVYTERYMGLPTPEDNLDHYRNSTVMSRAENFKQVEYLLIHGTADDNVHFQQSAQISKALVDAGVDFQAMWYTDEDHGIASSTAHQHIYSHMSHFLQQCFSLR
Protocol: The reaction was carried out according to the method of Raymond et al. (Diabetes, vol. 47, pp. 1253-1258, 1998) using a 96 well flat-bottomed plate at 30° C. An N,N-dimethylformamide solution (1 μl) containing the test compound was added to a mixture of water (69 μl), 1 M Tris-hydrochloride buffer (10 μl, pH 7.5) and 1 mM aqueous Gly-Pro-p-NA solution (100 μl) to prepare a mixed solution. Plasma (20 μl) prepared from blood of SD rat by a conventional method was added to the above-mentioned mixed solution and the enzyme reaction was started at 30° C. The absorbance after 0 hr. and 1 hr. was measured using a microplate reader at a wavelength of 405 nm and an increase (ΔODs) was determined. At the same time, an increase (ΔODc) in absorbance of the reaction mixture without the test compound, and an increase (ΔODb) in absorbance of the reaction mixture without the test compound and the enzyme were determined and percent inhibition of dipeptidyl peptidase IV enzyme activity was calculated from the following formula: {1−[(ΔODs−ΔODb)/(ΔODc−ΔODb)]}×100
The dipeptidyl peptidase IV inhibitory activity of the test compound group is expressed in IC50 value (μM) and shown in Table 2.

Row | SMILES | IC50 [1] [µM] | IC50 [2] [µM] | melting point [°C]
1 | CC(C)Cc1nc2ccc(Cl)cc2c(-c2ccccc2)c1CN [Example 1, (6-chloro-2-isobutyl-4-phenylquinolin-3-yl)methylamine] | 0.71 | 1.6 | 114 to 116
2 | CC(C)Cc1nc2ccc(Br)cc2c(-c2ccccc2)c1CN [Example 2, (6-bromo-2-isobutyl-4-phenylquinolin-3-yl)methylamine] |  |  | 129 to 130
3 | CC(C)Cc1nc2ccc(C#N)cc2c(-c2ccccc2)c1CN [Example 3, 3-(aminomethyl)-2-isobutyl-4-phenylquinoline-6-carbonitrile] |  |  | 128 to 130
4 | COc1ccc2nc(CC(C)C)c(CN)c(-c3ccccc3)c2c1 [Example 25, (2-isobutyl-6-methoxy-4-phenylquinolin-3-yl)methylamine] |  |  | 73 to 76
5 | COC(=O)c1ccc2nc(CC(C)C)c(CN)c(-c3ccccc3F)c2c1 [Example 29, Methyl 3-(aminomethyl)-4-(2-fluorophenyl)-2-isobutylquinoline-6-carboxylate] |  |  | 138 to 139
6 | Cc1ccc(-c2c(CN)c(CC(C)C)nc3ccc(OCc4ccccc4)cc23)cc1 [Example 30, [6-(benzyloxy)-2-isobutyl-4-(4-methylphenyl)quinolin-3-yl]methylamine] |  |  | 119 to 120
7 | CC(C)Cc1nc2ccc(OCC(N)=O)cc2c(-c2cccs2)c1CN [Example 33, 2-{[3-(aminomethyl)-2-isobutyl-4-thien-2-ylquinolin-6-yl]oxy}acetamide] |  |  | 156 to 157
8 | CC(C)Cc1nc2ccc(OCC(N)=O)cc2c(-c2cccc(F)c2)c1CN [Example 38, 2-{[3-(aminomethyl)-4-(3-fluorophenyl)-2-isobutylquinolin-6-yl]oxy}acetamide] |  |  | 106 to 109
9 | CC(C)(C)Cc1nc2ccc(OCC(N)=O)cc2c(-c2ccccc2)c1CN [Example 40, 2-{[3-(aminomethyl)-2-(2,2-dimethylpropyl)-4-phenylquinolin-6-yl]oxy}acetamide] |  |  | 152 to 154
10 | NCc1c(CC2CCCC2)nc2ccc(OCC(N)=O)cc2c1-c1ccccc1 [Example 42, 2-{[3-(aminomethyl)-2-(cyclopentylmethyl)-4-phenylquinolin-6-yl]oxy}acetamide] |  |  | 159 to 160
